Several values for one entry are separate records, joined by “and”; a condition that tells them apart may be missing. Equal entries are not always repeated. Entries after “also recorded” stand apart in the source; their conditions may differ.
Experiments:
Macrotermes natalensis = experiment: Field exposure of TBBA treated timber samples to an active termite population (based on EN 117); type: in vivo; settings: ethanol carrier, 54 days field exposure; for Mean Termite Attack Score (0-4): SD in parenthesis, 3 replicates; as to highest termite attack score out of 3 replicates: key: Score 0: No attack; Score 1: Attempted attack; Score 2: Slight attack; Score 3: Average attack; Score 4: Strong attack
From the text: The termiticidal and/or termite repellency effect of TBBA was examined by field exposure of TBBA treated timber samples to an active population of termites (Macrotermes natalensis). Much of the test detail (timber specimen species, dimensions, preservative impregnation method, scoring system etc.) was based on the European laboratory standard EN 117. This standard is used to define the toxic values of wood preservative formulations against wood destroying termites of the species Reticulitermes santonensis.
The TBBA active was formulated as a solvent-borne product for the test. (ethanol carrier). The precise preservative solutions used were 0% (ethanol only), 1% TBBA, 3% TBBA, 5% TBBA, 7% TBBA and 10% TBBA (all w/w).
AU wood block specimens were of Scots pine sapwood (Pinus sylvestris) with dimensions of 50×25×15 mm. All the test blocks were vacuum impregnated with TBBA according to the method of EN 117. Distribution of the treated blocks in the test was as follows:
TS Specimens: to determine the efficacy of the TBBA active (at different concentrations) against termite attack. SCS Specimens: to confirm absence of a termiticidal effect by the TBBA carrier (ethanol). UCS Specimens: to establish the virulence of the field population of termites.
The termite field site was established in Ginginglovu (Zululand, South Africa). The soil type of the area was a Hutton Bush Veldt soil (sandy loam soil). The site was situated within 10 m of an active termite mound on a raised flat platform of soil established some 5 cm above ground level. The test specimens were randomly positioned on this platform and carefully covered with a waterproof flat plastic roof. This plastic roof was covered with soil to allow temperature and humidity conditions within the test zone to remain representative of the locale. The test specimens were left in-situ for a period of 54 days then scored for termite attack according the system defined in European standard EN 117 as follows:
Score 1: Attempted attack

C. formosanus = experiment: Laboratory termite test, modified ASTM 3345-74, soil/sand culture, NaOH carrier, blocks not leached; type: in vivo; set-up: Termite Attack Rating / Mean Rating (termite attack): scale not given here; settings: for Mean Rating (termite attack): mean of 4 specimens; for Mean Rating (termite attack) / Termite Attack Rating: 4 weeks soil/sand culture; for Termite Attack Rating: single specimen; as to Termite Attack Rating: key: Score 0: No attack; Score 1: Attempted attack; Score 2: Slight attack; Score 3: Average attack; Score 4: Strong attack
Experimental: A further experiment was undertaken according to the modified ASTM 3345-74 test detailed in Example 2 with the following 6 changes to the protocol:
1. The solutions tested were as follows:
2. The incubation substrate was a soil/sand mixture (1:1) to which had been added 75 ml of de-ionised water. This substrate was chosen as being more representative of the laboratory conditions under which the wild caught termites (C. formosanus) were maintained.
3. The treated timber samples were positioned on plastic mesh on top of the soil substrate. This method of placement is that used in European Standard EN 117 and is more representative of the feeding conditions of the wild caught termites maintained in the laboratory.
4. 250 termites were used in each incubation vessel.
5. The wood block specimens were not subjected to a leaching process.
6. Evidence of termite tunneling activity and mortality was determined at completion of the incubation period only (4 weeks) and no examinations were undertaken for surface activity.

With CC(C)(c1cc(Br)c(O)c(Br)c1)c1cc(Br)c(O)c(Br)c1 [TBBA, Tetrabromobisphenol A] as the molecule, how does the “Mean Termite Attack Score (0-4)” value (Macrotermes natalensis; 1% TBBA (w/w)) read?
The value was 0.00 (0.00).

And the “highest termite attack score out of 3 replicates” value (“highest termite attack score out” for short) (Macrotermes natalensis; 1% TBBA)?
The value was 0.

What about the “Mean Termite Attack Score (0-4)” value (Macrotermes natalensis; 3% TBBA (w/w)) of the same molecule?
Its value is 0.00 (0.00).

And the “highest termite attack score out” value (Macrotermes natalensis; 3% TBBA)?
The value was 0.

What about the “Mean Termite Attack Score (0-4)” value (Macrotermes natalensis; 5% TBBA (w/w)) of the same molecule?
Its value is 0.00 (0.00).

What about the “highest termite attack score out” value (Macrotermes natalensis; 5% TBBA) of the same molecule?
The value was 0.

What about the “Mean Termite Attack Score (0-4)” value (Macrotermes natalensis; 7% TBBA (w/w)) of the same molecule?
Its value is 0.33 (0.58).

And the “highest termite attack score out” value (Macrotermes natalensis; 7% TBBA)?
The value was 1.

And the “Mean Termite Attack Score (0-4)” value (Macrotermes natalensis; 10% TBBA (w/w))?
Its value is 0.00 (0.00).

What about the “highest termite attack score out” value (Macrotermes natalensis; 10% TBBA) of the same molecule?
The value was 0.

And the “termiticidal and termite repellent activity (conclusion)” value (C. formosanus)?
The value was “significant termiticidal and termite repellent activity”.

What about the “termite survival / mortality at the end of the test period” value (C. formosanus; 4 weeks) of the same molecule?
Its value is “the majority of the termites were still active at the end of the test period”.

What about the “Tunneling Activity” value (C. formosanus; 4 weeks, solution conc. 1%) of the same molecule?
Its value is “Yes”.

And the “Visible Mortality” value (C. formosanus; 4 weeks, solution conc. 1%)?
Its value is “No”.

And the “Tunneling Activity” value (C. formosanus; 4 weeks, solution conc. 3%)?
The value was “Yes”.

What about the “Visible Mortality” value (C. formosanus; 4 weeks, solution conc. 3%) of the same molecule?
The value was 1-33%.

And the “Tunneling Activity” value (C. formosanus; 4 weeks, solution conc. 5%)?
Its value is “Yes”.

What about the “Visible Mortality” value (C. formosanus; 4 weeks, solution conc. 5%) of the same molecule?
Its value is 1-33%.

And the “Tunneling Activity” value (C. formosanus; 4 weeks, solution conc. 7%)?
The value was “Yes”.

What about the “Visible Mortality” value (C. formosanus; 4 weeks, solution conc. 7%) of the same molecule?
The value was 1-33%.

What about the “Tunneling Activity” value (C. formosanus; 4 weeks, solution conc. 10%) of the same molecule?
The value was “Yes”.

What about the “Visible Mortality” value (C. formosanus; 4 weeks, solution conc. 10%) of the same molecule?
The value was 1-33%.

What about the “prevention of termite attack / restriction of termite damage” value (C. formosanus; all concentrations used (1-10%), 4 weeks) of the same molecule?
Its value is “significant attack was prevented by all concentrations; also recorded: a very significant effect in restricting termite damage”.

What about the “toxic value, upper (lowest concentration which protects the wood)” value (C. formosanus; mean loading, solution concentration 3% (TBBF) or 1%, not leached) of the same molecule?
The value was 7.27 kg/m^3.

What about the “Mean Rating (termite attack)” value (C. formosanus; solution conc. 1%) of the same molecule?
Its value is 1.00.

And the “Termite Attack Rating” value (C. formosanus; solution conc. 1%)?
The value was 1.

And the “Mean Rating (termite attack)” value (C. formosanus; solution conc. 3%)?
The value was 1.00.

And the “Termite Attack Rating” value (C. formosanus; solution conc. 3%)?
Its value is 1.

And the “Mean Rating (termite attack)” value (C. formosanus; solution conc. 5%)?
The value was 1.00.

What about the “Termite Attack Rating” value (C. formosanus; solution conc. 5%) of the same molecule?
The value was 1.

What about the “Mean Rating (termite attack)” value (C. formosanus; solution conc. 7%) of the same molecule?
The value was 0.75.

And the “Termite Attack Rating” value (C. formosanus; solution conc. 7%)?
The value was 1 and 0.

And the “Mean Rating (termite attack)” value (C. formosanus; solution conc. 10%)?
The value was 1.00.

And the “Termite Attack Rating” value (C. formosanus; solution conc. 10%)?
Its value is 1.

And the “repellent effect (soil covering of test specimens)” value (C. formosanus; specimens treated with 5, 7 and 10% solutions only partially soil covered)?
The value was “acting as a repellent throughout the trial period”.

— patent publication US20040266885A1, “Wood preservative compositions” (priority 2001, published 2004)
